Drawing on patent US20250235456A1, “METHODS OF USE FOR AZA-QUINAZOLINE COMPOUNDS” (Iambic Therapeutics, Inc., priority 2024, published 2025), this text covers IC50 for twelve molecules.

Like-named read-outs stand apart in the source and are kept apart here. Bounds are passed on as bounds.

The subject of one assay is OVCAR-3 cells. Briefly: Cell Growth Inhibition, OVCAR-3 (CellTiterGlo, 6 days). The class given is cell-based. The source says:
(§1) MCF-7 and OVCAR-3 cells were used to evaluate the anti-proliferation activity of the CDK inhibitors. MCF-7 (ATCC, HTB-22) cells are epithelial cells from a patient with ER+ metastatic adenocarcinoma. OVCAR-3 (ATCC, HTB-161) cells were derived from malignant ascites of a patient with ovarian cancer and are known to have CCNE1 amplification. Both cell lines were maintained in RPMI media supplemented with 10% fetal bovine serum. For cell growth inhibition assay, CDK inhibitors in DMSO solution were dispensed with either Echo 655 (Beckman Coulter) or Tecan D300e (TIP) into 384-well plates (Corning #3765) and the 384-well plates were UV-sterilized prior to the assay. The inhibitors were typically tested in the 10-10,000 nM concentration range with half-log serial dilutions. MCF-7 or OVCAR-3 (500 cells/30 μL/well) were added to each well using Multidrop Combi (ThermoFisher) using standard cassettes. The assay plates with cells were cultured at 37° C., 5% CO2 for 6 days. At the end of the 6-day treatment, 30 μL of CellTiterGlo 2.0 (Promega) was added to each well and the luminescent signal was read using CLARIOstar plus (BMG). The percentage of cell growth inhibition (% CGI) was calculated using the following formula % CGI=100-100×luminescencesample/luminescenecontrol. The half maximal inhibitory concentration (IC50) was determined by nonlinear curve fitting (four parameters, variable slope).
A general note: ATP-based viability assays read luminescence as a measure of living cells.

A further assay concerns MCF-7 cells. Kind of assay: Cell Growth Inhibition, MCF-7 (CellTiterGlo, 6 days). The class given is cell-based.
Description: as §1

Assay [1] addresses CDK2/Cyclin E1 full length (Homo sapiens (Human), UniProt P24941). Kind of assay: CDK2/Cyclin E1 Full length ADP-Glo Kinase Assay. The class given is biochemical. As to conditions: read-out: CDK2/CyclinE1 IC50. As for the experimental part:
CDK2/Cyclin E1 Full length ADP-Glo Kinase Assay
The purpose of CDK2/Cyclin El assay is to evaluate the inhibition (% inhibition and IC50 values) of small molecule inhibitors by using a Luminescent based ADP-Glo assay. CDK2/Cyclin El full length catalyzes the production of ADP from ATP. ADP-Glo assay monitors ADP producing biochemical reactions. ADP-Glo is performed in 2 steps upon completion of kinase reaction: a combined termination of kinase reaction and depletion of remaining ATP in the first step, and conversion of generated ADP to ATP and the newly produced ATP to light output using luciferase/luciferin reaction in the second step. The luminescent signal generated is proportional to the ADP concentration produced and is correlated with the kinase activity. CDK2/Cyclin E1 was purchased from Eurofins (Cat 14-475M). […] The assay was initiated with the addition of ATP-containing substrate solution, following a 30-minute pre-incubation of enzyme and inhibitor at room temperature in the reaction mixture. The reaction was stopped after 90 minutes at room temperature by the addition of 10 μL of ADP-GLO Reagent. After a 90 minute incubation, 20 uL of Kinase Detection Reagent was added. Samples were incubated for 40 minutes, after which plate well luminescence was measured on a Envision microplate reader. The IC50 determinations were made from a plot of the fractional velocity as a function of inhibitor concentration fit to the 4 parameters IC50 equation.
(In general: ADP-Glo turns the ADP formed in a reaction into a luminescent signal.)

Another assay addresses CDK6/Cyclin D3 (Homo sapiens (Human), UniProt Q00534). Briefly: CDK6/Cyclin D3 ADP-Glo Kinase Assay. The class given is biochemical. As to conditions: read-out: CDK6/CyclinD3 IC50. Summed up:
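Commercial CDK6/Cyclin D3 pre-incubated with inhibitor 30 min at room temperature, then reaction started with ATP/substrate and run 90 min at room temperature. ADP formed measured by ADP-Glo luminescence; IC50 from fractional velocity vs inhibitor concentration fit to a 4-parameter equation.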

The target of another assay is CDK1/Cyclin B1 (Homo sapiens (Human), UniProt P06493). Briefly: CDK1/Cyclin B1 ADP-Glo Kinase Assay. Type of assay: biochemical. Summed up: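 Purchased CDK1/Cyclin B1 was pre-incubated 30 min with inhibitor at room temperature, then reacted 90 min at room temperature after adding ATP-containing substrate. ADP formed was read by two-step ADP-Glo luminescence. IC50 came from a 4-parameter fit of fractional velocity versus inhibitor concentration.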
Chain of CDK1/Cyclin B1 (P06493 whole entry): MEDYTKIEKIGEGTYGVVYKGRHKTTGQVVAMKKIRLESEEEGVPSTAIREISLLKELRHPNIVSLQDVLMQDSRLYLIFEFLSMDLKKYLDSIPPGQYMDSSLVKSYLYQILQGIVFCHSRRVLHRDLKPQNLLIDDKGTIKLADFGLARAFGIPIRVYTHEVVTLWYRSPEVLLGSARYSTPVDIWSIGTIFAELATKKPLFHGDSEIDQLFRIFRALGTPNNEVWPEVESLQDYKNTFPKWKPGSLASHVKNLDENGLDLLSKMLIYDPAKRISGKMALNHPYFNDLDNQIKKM
Chain of CDK1/Cyclin B1 (P14635 whole entry partner): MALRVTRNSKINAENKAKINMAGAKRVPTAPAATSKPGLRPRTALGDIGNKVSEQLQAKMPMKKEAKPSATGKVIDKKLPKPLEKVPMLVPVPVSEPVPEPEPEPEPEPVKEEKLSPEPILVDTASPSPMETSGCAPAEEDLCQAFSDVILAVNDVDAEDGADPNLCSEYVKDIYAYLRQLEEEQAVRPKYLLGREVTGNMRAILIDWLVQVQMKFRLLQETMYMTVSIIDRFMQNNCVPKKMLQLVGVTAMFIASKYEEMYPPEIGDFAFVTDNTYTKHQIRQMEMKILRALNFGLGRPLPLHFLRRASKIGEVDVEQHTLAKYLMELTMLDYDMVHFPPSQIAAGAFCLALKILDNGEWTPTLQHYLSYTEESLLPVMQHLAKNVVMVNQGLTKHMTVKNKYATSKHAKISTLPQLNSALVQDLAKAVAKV

The target in assay [2] is T1, CDK4/Cyclin D1 (Homo sapiens (Human), UniProt P11802). Kind of assay: CDK4/Cyclin D1 CHEF Assay. The class given is biochemical. Particulars: AQT; read-out: CDK4/CyclinD1 AQT IC50. Summed up: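 Peptide substrate AQT0258 carries a Sox fluorophore whose Mg(II)-dependent fluorescence (ex 360/em 485 nm) rises on phosphorylation. Enzyme and inhibitor pre-incubated 30 min at 22 °C, substrate added, reaction run 3 h at 22 °C. IC50 from 4-parameter fit of fractional velocity vs inhibitor concentration.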
T1 sequence (P11802 whole entry, species assumed): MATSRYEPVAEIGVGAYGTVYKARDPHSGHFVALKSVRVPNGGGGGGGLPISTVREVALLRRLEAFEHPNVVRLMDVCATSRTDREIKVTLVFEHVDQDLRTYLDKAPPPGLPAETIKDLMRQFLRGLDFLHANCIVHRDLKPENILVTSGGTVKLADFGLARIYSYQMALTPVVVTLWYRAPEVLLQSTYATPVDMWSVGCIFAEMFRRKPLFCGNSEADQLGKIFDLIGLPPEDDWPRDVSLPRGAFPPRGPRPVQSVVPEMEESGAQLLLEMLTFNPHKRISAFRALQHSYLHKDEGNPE
T1 sequence (P24385 whole entry partner, species assumed): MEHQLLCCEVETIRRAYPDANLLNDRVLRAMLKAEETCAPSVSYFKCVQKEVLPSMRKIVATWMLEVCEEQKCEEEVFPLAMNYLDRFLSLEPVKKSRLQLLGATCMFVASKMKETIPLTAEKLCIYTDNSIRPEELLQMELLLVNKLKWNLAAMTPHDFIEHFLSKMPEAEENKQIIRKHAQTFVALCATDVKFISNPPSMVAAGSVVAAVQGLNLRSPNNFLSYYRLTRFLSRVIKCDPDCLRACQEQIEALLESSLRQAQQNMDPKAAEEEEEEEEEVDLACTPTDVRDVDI

Assay [3] deals with T1, CDK4/Cyclin D1. Kind of assay: CDK4/Cyclin D1 Mobility Shift Assay (MSA). Type of assay: biochemical. As to conditions: read-out: CDK4/CyclinD1 MSA IC50. The source says: CDK4/Cyclin D1 Mobility Shift Assay (MSA) The purpose CDK4/Cyclin D1 assay is to evaluate the inhibition (% inhibition and IC50 values) in the presence of small molecule inhibitors by using a fluorescence based microfluidic mobility shift assay. CDK4/Cyclin D1 catalyzes the production of ADP from ATP that accompanies the phosphoryl transfer to the substrate peptide 5-FAM-Dyrktide (5-FAM-[…]) (Perkin Elmer Peptide 34). The mobility shift assay (MSA) electrophoretically separates the fluorescently labelled peptides (substrate and phosphorylated product) following the kinase reaction. Both substrate and product are measured, and the ratio of these values is used to generate % conversion of substrate to product by the LabChip EZ Reader. Typical reaction solutions contained 2% DMSO (+/−inhibitor), 10 mM MgCl2, 1 mM EGTA, 0.05% BSA, 2 mM DTT, 0.2 mM ATP, 0.01% Brig-35, 1.5 uM 5-FAM-Dyrktide, 2.5 nM CDK4/Cyclin D1 in 50 mM HEPES buffer at pH 7.5. The reaction was initiated with the addition of substrate solution, following a 30-minute pre-incubation of enzyme and inhibitor at 22° C. in the reaction mix. The reaction was stopped after 180 minutes by the addition of 75 μL of 500 mM EDTA and measured on a Perkin Elmer EZ reader instrument. IC50 determinations were made from a plot of the fractional velocity as a function of inhibitor concentration fit to the 4 parameters IC50 equation.

Chain of CDK6/Cyclin D3 (Q00534 whole entry): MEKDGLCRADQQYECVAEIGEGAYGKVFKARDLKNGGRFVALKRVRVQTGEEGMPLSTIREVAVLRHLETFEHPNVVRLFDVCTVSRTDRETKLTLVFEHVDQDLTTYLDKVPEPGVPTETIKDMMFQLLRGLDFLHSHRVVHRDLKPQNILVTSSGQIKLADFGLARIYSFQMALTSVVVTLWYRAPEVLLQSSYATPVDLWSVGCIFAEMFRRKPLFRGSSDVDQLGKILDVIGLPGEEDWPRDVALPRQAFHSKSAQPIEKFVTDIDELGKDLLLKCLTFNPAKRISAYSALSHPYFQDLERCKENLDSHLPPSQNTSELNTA
Chain of CDK6/Cyclin D3 (P30281 whole entry partner): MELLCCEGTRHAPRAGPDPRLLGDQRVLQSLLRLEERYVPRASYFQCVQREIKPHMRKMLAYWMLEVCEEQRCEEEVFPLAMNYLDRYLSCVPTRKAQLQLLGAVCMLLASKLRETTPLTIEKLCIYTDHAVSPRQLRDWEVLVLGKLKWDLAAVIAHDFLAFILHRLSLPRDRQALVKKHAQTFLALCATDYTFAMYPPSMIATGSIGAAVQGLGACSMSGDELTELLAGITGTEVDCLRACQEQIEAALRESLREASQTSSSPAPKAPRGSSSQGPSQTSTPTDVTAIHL

Regarding “1-cyclopropyl-3-(6-methyl-2-((1-(methylsulfonyl)piperidin-4-yl)amino)pyrido[3,4-d]pyrimidin-8-yl)cyclobutan-1-ol [Compound 85]”, the IC50 was 500 to 2000 nM in the assay with OVCAR-3 cells; 500 to 2000 nM in the assay with MCF-7 cells; under 200 nM in assay [1]; under 200 nM at CDK6/Cyclin D3; under 200 nM on CDK1/Cyclin B1; under 200 nM at CDK4/Cyclin D1 [2].
Consider `CN1CCN(c2ccc(Nc3ncc4ccnc(N5CCC6(C5)CC(F)(F)C6)c4n3)cc2)CC1` [Compound 4, 8-(2,2-difluoro-6-azaspiro[3.4]octan-6-yl)-N-(4-(4-methylpiperazin-1-yl)phenyl)pyrido [3,4-d]pyrimidin-2-amine], for which the IC50 on CDK4/Cyclin D1 [3] was under 200 nM; at CDK6/Cyclin D3, under 200 nM; against CDK1/Cyclin B1, 200 to 500 nM.
On to `CS(=O)(=O)N1CCC(Nc2ncc3ccnc(N4CCC(C#N)(C5CC5)C4)c3n2)CC1` (stereo not shown) [Compound 5, 3-cyclopropyl-1-(2-((1-(methylsulfonyl)piperidin-4-yl)amino)pyrido[3,4-d]pyrimidin-8-yl)pyrrolidine-3-carbonitrile], for which the IC50 at CDK4/Cyclin D1 [3], at CDK6/Cyclin D3 and against CDK1/Cyclin B1 was under 200 nM throughout.
As to `CS(=O)(=O)N1CCC(Nc2ncc3ccnc(N4CCC5(CCOCC5)C4)c3n2)CC1` [Compound 7, N-(1-(methylsulfonyl)piperidin-4-yl)-8-(8-oxa-2-azaspiro[4.5]decan-2-yl)pyrido[3,4-d]pyrimidin-2-amine], the IC50 at CDK4/Cyclin D1 [3] was under 200 nM; at CDK6/Cyclin D3 it was under 200 nM; against CDK1/Cyclin B1 it was 200 to 500 nM.
`CN1CCn2nc(Nc3ncc4ccnc(N5CCC6(C5)CC6(F)F)c4n3)cc2C1` (stereo not shown) [Compound 10, 8-(1,1-difluoro-5-azaspiro[2.4]heptan-5-yl)-N-(5-methyl-4,5,6,7-tetrahydropyrazolo [1,5-a]pyrazin-2-yl)pyrido[3,4-d]pyrimidin-2-amine]: the values for the IC50 on CDK4/Cyclin D1 [3], at CDK6/Cyclin D3 and at CDK1/Cyclin B1 were under 200 nM, under 200 nM and over 2000 nM, respectively.
As for `CS(=O)(=O)N1CC(Nc2ncc3ccnc(N4CCC5(C4)CC5(F)F)c3n2)C1` (stereo not shown) [Compound 14, 8-(1,1-difluoro-5-azaspiro[2.4]heptan-5-yl)-N-(1-(methylsulfonyl)azetidin-3-yl) pyrido[3,4-d]pyrimidin-2-amine], the IC50 at CDK4/Cyclin D1 [3] was under 200 nM; on CDK6/Cyclin D3, under 200 nM; at CDK1/Cyclin B1, 200 to 500 nM.
As for `CS(=O)(=O)N1CCC(Nc2ncc3ccnc(N4C[C@H]5c6ccccc6S(=O)(=O)[C@H]5C4)c3n2)CC1` [Compound 16, (3aR,8bR)-2-(2-((1-(methylsulfonyl)piperidin-4-yl)amino)pyrido[3,4-d]pyrimidin-8-yl)-2,3,3a,8b-tetrahydro-1H-benzo[4,5]thieno [2,3-c]pyrrole 4,4-dioxide], the IC50 (on CDK4/Cyclin D1 [3]; in assay [1]; at CDK6/Cyclin D3; at CDK1/Cyclin B1) was under 200 nM each time.
With `CN1C[C@@H]2[C@H](C1)[C@H]2Nc1ncc2ccnc(N3CCC4(C3)CC4(F)F)c2n1` (stereo partly drawn) [Compound 17, 8-(1,1-difluoro-5-azaspiro[2.4]heptan-5-yl)-N-((1R,5S,6s)-3-methyl-3-azabicyclo[3.1.0]hexan-6-yl) pyrido[3,4-d]pyrimidin-2-amine], the IC50 on CDK4/Cyclin D1 [3] is under 200 nM; in assay [1], 200 to 500 nM; on CDK6/Cyclin D3, 200 to 500 nM.
For the molecule `CCN1CC2(C1)CN(c1ccc(Nc3ncc4ccnc(N5CCC6(C5)CC6(F)F)c4n3)nc1)C2` (stereo not shown) [Compound 21, 8-(1,1-difluoro-5-azaspiro[2.4]heptan-5-yl)-N-(5-(6-ethyl-2,6-diazaspiro[3.3]heptan-2-yl)pyridin-2-yl)pyrido[3,4-d]pyrimidin-2-amine], the IC50 was under 200 nM at CDK4/Cyclin D1 [3], 200 to 500 nM in assay [1], under 200 nM on CDK6/Cyclin D3 and over 2000 nM against CDK1/Cyclin B1.
In the case of `Cc1cc2cnc(NC3CCN(S(C)(=O)=O)CC3)nc2c(C2CC(O)(C(F)F)C2)n1` (stereo not shown) [Compound 93, 1-(difluoromethyl)-3-(6-methyl-2-((1-(methylsulfonyl)piperidin-4-yl)amino)pyrido[3,4-d]pyrimidin-8-yl)cyclobutan-1-ol], the IC50 in the assay on OVCAR-3 cells (Homo sapiens, 144 h) was 500 to 2000 nM; with MCF-7 cells (Homo sapiens, MCF7, 144 h) it was 500 to 2000 nM; on CDK6/Cyclin D3 it was under 200 nM; on CDK1/Cyclin B1 it was under 200 nM; at CDK4/Cyclin D1 [2], under 200 nM.
As to `CS(=O)(=O)N1CCC(Nc2ncc3ccnc(N4CCC5(C4)CC(F)(F)C5)c3n2)CC1` [Example 2, 8-(2,2-difluoro-6-azaspiro[3.4]octan-6-yl)-N-(1-(methylsulfonyl)piperidin-4-yl)pyrido[3,4-d]pyrimidin-2-amine], the IC50 on CDK4/Cyclin D1 [3], at CDK6/Cyclin D3 and on CDK1/Cyclin B1 was under 200 nM throughout.
For the molecule `CCN1CC2(C1)CN(c1ccc(Nc3ncc4ccnc(N5CCC6(C5)CC(F)(F)C6)c4n3)nc1)C2` [Example 6, 8-(2,2-difluoro-6-azaspiro[3.4]octan-6-yl)-N-(5-(6-ethyl-2,6-diazaspiro[3.3]heptan-2-yl)pyridin-2-yl)pyrido[3,4-d]pyrimidin-2-amine], the IC50 at CDK4/Cyclin D1 [3] was under 200 nM; at CDK6/Cyclin D3, under 200 nM; on CDK1/Cyclin B1, over 2000 nM.
